Source: US20260317309A1, “N-HETEROCYLIC GPCR RECEPTOR AGONISTS, PHARMACEUTICAL COMPOSITIONS COMPRISING THE SAME, AND METHODS FOR THEIR USE” (Carmot Therapeutics, Inc., priority 2022, published 2026)
pEC50: −log10 of the molar value.

Each compound was assayed against T1, human GLP-1 receptor (Homo sapiens, UniProt P43220) (assay: GLP-1R cAMP assay (cAMP accumulation in CHO cells stably overexpressing the human GLP-1 receptor, HitHunter kit)). Details: CHO cells stably overexpressing human GLP-1R, 30 min, 20-point dose response in triplicate.
T1 construct: expressed in transfected cells
T1 sequence (P43220 24-463): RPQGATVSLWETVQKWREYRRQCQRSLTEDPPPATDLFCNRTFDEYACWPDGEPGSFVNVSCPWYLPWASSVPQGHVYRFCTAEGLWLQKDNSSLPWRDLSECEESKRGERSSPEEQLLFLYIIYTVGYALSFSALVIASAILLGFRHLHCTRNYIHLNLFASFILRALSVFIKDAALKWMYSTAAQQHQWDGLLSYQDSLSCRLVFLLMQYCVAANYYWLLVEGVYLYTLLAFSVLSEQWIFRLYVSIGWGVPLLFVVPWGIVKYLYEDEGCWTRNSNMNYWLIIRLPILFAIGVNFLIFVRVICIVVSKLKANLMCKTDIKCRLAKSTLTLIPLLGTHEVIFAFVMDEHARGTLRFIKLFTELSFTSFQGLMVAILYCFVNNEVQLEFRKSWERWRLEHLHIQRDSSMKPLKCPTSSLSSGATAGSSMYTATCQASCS
Format: cell-based
Method: CAMP accumulation was measured in Chinese hamster ovary (CHO) cells (10,000 cells/well) stably overexpressing the human GLP-1 receptor using the HitHunter CAMP Assay for Small Molecules Kit (Eurofins). Briefly, cells were grown in Ham's F12 Nutrient Mix with 10% FBS, and lifted with Cell Dissociation Buffer, Enzyme free, PBS based (ThermoFisher). Cells were pelleted, and resuspended in Hank's buffered saline solution with 10 mM HEPES, and 625 μM 3-isobutyl-1-methylxanthine. The anti-cAMP antibody reagent was then added to cells at a 1:2 ratio and 5 μL of mixture was seeded in 384-well small volume white assay plates, at 10,000 cells/well. Cells were then treated with 50 nL compound using an ECHO 550 acoustic dispenser (Labcyte) in a 20-point dose response format in triplicate for 30 min. Cells were then lysed, and detection reagents added according to the manufacturer's protocol. After overnight incubation, luminescence was measured using a Perkin Elmer Envision plate reader. Dose response curves were analyzed using GraphPad Prism 9.0.
In the Table, EC50 values are designated as follows: • A: 0 nM<EC50<0.1 nM; • B: 0.1 nM≤EC50<1.0 nM; • C: 1.0 nM≤EC50<10.0 nM; • D: 10.0 nM≤EC50<100 nM; • E: 100 nM≤EC50<500 nM; and • F: ≥500 nM
`C[C@H]1C[C@@H](Oc2ccnc(CNc3ncc(F)cc3Cl)n2)CCN1Cc1nc2ccc(C(=O)O)cc2n1C[C@@H]1CCO1` [Compound 624, 2-(((2S,4S)-4-((2-(((3-Chloro-5-fluoropyridin-2-yl)amino)methyl)pyrimidin-4-yl)oxy)-2-methylpiperidin-1-yl)methyl)-1-(((S)-oxetan-2-yl)methyl)-1H-benzo[d]imidazole-6-carboxylic acid] showed a pEC50 of 8.00 to 9.00. For `C[C@H]1C[C@@H](Oc2ccnc(COc3ccc(F)cc3F)n2)CCN1Cc1nc2ccc(C(=O)O)cc2n1C[C@H]1CCO1` [Compound 562, 2-{[(2S,4S)-4-({2-[(2,4-difluorophenoxy)methyl]pyrimi-din-4-yl}oxy)-2-methylpiperi-din-1-yl]methyl}-1-{[(2R)-oxe-tan-2-yl]methyl}-1H-1,3-benzo-diazole-6-carboxylic acid], the pEC50 was 9.00 to 10.00. Compound `C[C@H](Cn1c(CN2CC[C@H](Oc3ccnc(COc4ncc(F)cc4C#N)n3)C[C@@H]2C)nc2ccc(C(=O)O)cc21)OC(F)F` [Compound 627, 2-(((2S,4S)-4-((2-(((3-Cyano-5-fluoropyridin-2-yl)oxy)methyl)pyrimidin-4-yl)oxy)-2-methylpiperidin-1-yl)methyl)-1-((R)-2-(difluoromethoxy)propyl)-1H-benzo[d]imidazole-6-carboxylic acid] has a pEC50 of 9.00 to 10.00. With `C[C@H]1C[C@@H](Oc2ccnc(COc3ccc(F)cc3C#N)n2)CCN1Cc1nc2ccc(C(=O)O)cc2n1CCOCC(F)(F)F` [Compound 601, 2-{[(2S,4S)-4-({2-[(2-cyano-4-fluorophenoxy)methyl]pyrimidin-4-yl}oxy)-2-methylpiperidin-1-yl]methyl}-1-[2-(2,2,2-trifluoroethoxy)ethyl]-1H-1,3-benzodiazole-6-carboxylic acid] the pEC50 was > 10.00. `C[C@@H](Cn1c(CN2CC[C@H](Oc3ccnc(COc4ccc(F)cc4F)n3)C[C@@H]2C)nc2ccc(C(=O)O)cc21)OCC(F)(F)F` [Compound 598, 2-{[(2S,4S)-4-({2-[(2,4-Difluorophenoxy)methyl]pyrimidin-4-yl}oxy)-2-methylpiperidin-1-yl]methyl}-1-[(2S)-2-(2,2,2-trifluoroethoxy)propyl]-1H-1,3-benzodiazole-6-carboxylic acid] was tested, and the pEC50 was 9.00 to 10.00. With `C[C@H]1C[C@@H](Oc2nc(COc3ccc(F)cc3F)ncc2F)CCN1Cc1nc2ccc(C(=O)O)cc2n1C[C@@H]1CCO1` [Compound 581, 2-{[(2S,4S)-4-({2-[(2,4-difluorophenoxy)methyl]-5-fluoropyrimidin-4-yl}oxy)-2-methylpiperidin-1-yl]methyl}-1-{[(2S)-oxetan-2-yl]methyl}-1H-1,3-benzodiazole-6-carboxylic acid] the pEC50 was > 10.00. `C[C@H]1C[C@@H](Oc2ccnc(COc3ccc(F)cc3C#N)n2)CCN1Cc1nc2ncc(C(=O)O)cc2n1C[C@@H]1CCO1` [Compound 556, 2-(((2S,4S)-4-((2-((2-Cyano-4-fluorophenoxy)methyl)pyrimidin-4-yl)oxy)-2-methylpiperidin-1-yl)methyl)-1-(((S)-oxetan-2-yl)methyl)-1H-imidazo[4,5-b]pyridine-6-carboxylic acid] gave a pEC50 of 9.00 to 10.00. `C[C@H](Cn1c(CN2CC[C@H](Oc3ccnc(COc4ccc(F)cc4F)n3)C[C@@H]2C)nc2ccc(C(=O)O)cc21)OC1CC1` [Compound 618, 1-((R)-2-cyclopropoxypropyl)-2-(((2S,4S)-4-((2-((2,4-difluorophenoxy)methyl)pyrimidin-4-yl)oxy)-2-methylpiperidin-1-yl)methyl)-1H-benzo[d]imidazole-6-carboxylic acid] gave a pEC50 of 9.00 to 10.00. For `C[C@H](Cn1c(CN2CC[C@H](Oc3ccnc(COc4ncc(F)cc4F)n3)C[C@@H]2C)nc2ccc(C(=O)O)cc21)OC(F)F` [Compound 617, 1-((R)-2-(Difluoromethoxy)propyl)-2-(((2S,4S)-4-((2-(((3,5-difluoropyridin-2-yl)oxy)methyl)pyrimidin-4-yl)oxy)-2-methylpiperidin-1-yl)methyl)-1H-benzo[d]imidazole-6-carboxylic acid], the pEC50 was > 10.00. With `C[C@H]1C[C@@H](Oc2ccnc(COc3ccc(F)cc3F)n2)CCN1Cc1nc2c(F)cc(C(=O)O)cc2n1C[C@@H]1CCCO1` [Compound 621, 2-(((2S,4S)-4-((2-((2,4-Difluorophenoxy)methyl)pyrimidin-4-yl)oxy)-2-methylpiperidin-1-yl)methyl)-4-fluoro-1-(((S)-tetrahydrofuran-2-yl)methyl)-1H-benzo[d]imidazole-6-carboxylic acid] the pEC50 was > 10.00. `C[C@H]1C[C@@H](Oc2ccnc(COc3ccc(C#N)cn3)n2)CCN1Cc1nc2c(F)cc(C(=O)O)cc2n1C[C@@H]1CCO1` [Compound 604, 2-{[(2S,4S)-4-[(2-{[(5-cyanopyridin-2-yl)oxy]methyl}pyrimidin-4-yl)oxy]-2-methylpiperidin-1-yl]methyl}-4-fluoro-1-{[(2S)-oxetan-2-yl]methyl}-1H-1,3-benzodiazole-6-carboxylic acid] was tested, and the pEC50 was 9.00 to 10.00. Work on `C[C@H]1C[C@@H](Oc2ccnc(COc3ncc(F)cc3F)n2)CCN1Cc1nc2ccc(C(=O)O)cc2n1C[C@@H]1CCCO1` [Compound 632, 2-(((2S,4S)-4-((2-(((3,5-Difluoropyridin-2-yl)oxy)methyl)pyrimidin-4-yl)oxy)-2-methylpiperidin-1-yl)methyl)-1-(((S)-tetrahydrofuran-2-yl)methyl)-1H-benzo[d]imidazole-6-carboxylic acid] yielded a pEC50 of 9.00 to 10.00. In the case of `C[C@H]1C[C@@H](Oc2ccnc(COc3ncc(Cl)cc3F)n2)CCN1Cc1nc2ccc(C(=O)O)cc2n1C[C@@H]1CCO1` [Compound 554, 2-(((2S,4S)-4-((2-(((5-Chloro-3-fluoropyridin-2-yl)oxy)methyl)pyrimidin-4-yl)oxy)-2-methylpiperidin-1-yl)methyl)-1-(((S)-oxetan-2-yl)methyl)-1H-benzo[d]imidazole-6-carboxylic acid], the pEC50 was > 10.00. `C[C@H]1C[C@@H](Oc2ccnc(COc3ncc(F)cc3F)n2)CCN1Cc1nc2ccc(C(=O)O)cc2n1C[C@@H]1CCO1` [Compound 566, 2-{[(2S,4S)-4-[(2-{[(3,5-Difluoropyridin-2-yl)oxy]methyl}pyrimidin-4-yl)oxy]-2-methylpiperidin-1-yl]methyl}-1-{[(2S)-oxetan-2-yl]methyl}-1H-1,3-benzodiazole-6-carboxylic acid] was tested, and the pEC50 was 9.00 to 10.00. `C[C@H]1C[C@@H](Oc2ccnc(COc3ncc(Cl)cc3F)c2)CCN1Cc1nc2ccc(C(=O)O)cc2n1C[C@@H]1CCO1` [Compound 615, 2-(((2S,4S)-4-((2-(((5-Chloro-3-fluoropyridin-2-yl)oxy)methyl)pyridin-4-yl)oxy)-2-methylpiperidin-1-yl)methyl)-1-(((S)-oxetan-2-yl)methyl)-1H-benzo[d]imidazole-6-carboxylic acid] gave a pEC50 of 9.00 to 10.00. `O=C(O)c1cc(F)c2nc(CN3CCC(Oc4ccnc(COc5ncc(Cl)cc5F)c4)CC3)n(C[C@@H]3CCO3)c2c1` [Compound 613, (S)-2-((4-((2-(((5-Chloro-3-fluoropyridin-2-yl)oxy)methyl)pyridin-4-yl)oxy)piperidin-1-yl)methyl)-4-fluoro-1-(oxetan-2-ylmethyl)-1H-benzo[d]imidazole-6-carboxylic acid] gave a pEC50 of 9.00 to 10.00. `COC1(Cn2c(CN3CC[C@H](Oc4ccnc(COc5ccc(F)cc5F)n4)C[C@@H]3C)nc3ccc(C(=O)O)cc32)CCC1` [Compound 600, 2-{[(2S,4S)-4-({2-[(2,4-Difluorophenoxy)methyl]pyrimidin-4-yl}oxy)-2-methylpiperidin-1-yl]methyl}-1-[(1-methoxycyclobutyl)methyl]-1H-1,3-benzodiazole-6-carboxylic acid] showed a pEC50 of 9.00 to 10.00. In the case of `CC(c1nc2ccc(C(=O)O)cc2n1C[C@@H]1CCO1)N1CC[C@H](Oc2ccnc(COc3ccc(F)cc3F)n2)C[C@@H]1C` (mixture of isomers) [Compound 568, 2-{1-[(2S,4S)-4-({2-[(2,4-difluorophenoxy)methyl]pyrimidin-4-yl}oxy)-2-methylpiperidin-1-yl]ethyl}-1-{[(2S)-oxetan-2-yl]methyl}-1H-1,3-benzodiazole-6-carboxylic acid], the pEC50 was 9.00 to 10.00. In the case of `C[C@H]1C[C@@H](Oc2ccnc(COc3ccc(F)cc3F)n2)CCN1Cc1nc2ccc(C(=O)O)cc2n1CC1(C(F)F)COC1` [Compound 583, 1-{[3-(difluoromethyl)oxetan-3-yl]methyl}-2-{[(2S,4S)-4-({2-[(2,4-difluorophenoxy)methyl]pyrimidin-4-yl}oxy)-2-methylpiperidin-1-yl]methyl}-1H-1,3-benzodiazole-6-carboxylic acid], the pEC50 was 9.00 to 10.00. For `CC(c1nc2ccc(C(=O)O)cc2n1C[C@@H](O)CCO)N1CC[C@H](Oc2ccnc(COc3ccc(F)cc3F)n2)C[C@@H]1C` (mixture of isomers) [Compound 569, 2-{1-[(2S,4S)-4-({2-[(2,4-difluorophenoxy)methyl]pyrimidin-4-yl}oxy)-2-methylpiperidin-1-yl]ethyl}-1-[(2S)-2,4-dihydroxybutyl]-1H-1,3-benzodiazole-6-carboxylic acid], the pEC50 was ≤ 6.30. For `C[C@H]1C[C@@H](Oc2ccnc(COc3ccc(F)cc3F)n2)CCN1Cc1nc2ccc(C(=O)O)cc2n1CC12CC(CO1)C2` [Compound 570, 2-{[(2S,4S)-4-({2-[(2,4-Difluorophenoxy)methyl]pyrimidin-4-yl}oxy)-2-methylpiperidin-1-yl]methyl}-1-({2-oxabicyclo[2.1.1]hexan-1-yl}methyl)-1H-1,3-benzodiazole-6-carboxylic acid], the pEC50 was 9.00 to 10.00.
